Measurements reported in PubChem BioAssay (NCI).
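Cultured in 96-well plates, cells were exposed to test compound for 48 hours across five concentrations. GI50: concentration for 50% inhibition of growth. TGI: total growth inhibition.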

What was measured:
Test in all cases: NCI-60 cell line screen, 48 h
[1] = tested on: BT-549 breast
[2] = tested on: SF-268 CNS
[3] = tested on: UO-31 renal
[4] = tested on: UACC-62 melanoma
[5] = tested on: HCC-2998 colon
[6] = tested on: SK-MEL-2 melanoma
[7] = tested on: M14 melanoma
[8] = tested on: SNB-75 CNS
[9] = tested on: OVCAR-8 ovarian
[10] = tested on: ACHN renal
[11] = tested on: K-562 leukemia
[12] = tested on: EKVX NSCLC
[13] = tested on: A549 NSCLC
[14] = tested on: SNB-19 CNS
[15] = tested on: HOP-62 NSCLC
[16] = tested on: COLO 205 colon
[17] = tested on: PC-3 prostate
[18] = tested on: NCI-H522 lung
[19] = tested on: SK-OV-3 ovarian
[20] = tested on: NCI-H23 lung
[21] = tested on: TK-10 renal
[22] = tested on: UACC-257 melanoma
[23] = tested on: SK-MEL-5 melanoma
[24] = tested on: U251 CNS
[25] = tested on: RXF 393 renal
[26] = tested on: HOP-92 NSCLC
[27] = tested on: T-47D breast
[28] = tested on: 786-0 renal
[29] = tested on: LOX IMVI melanoma

For CSc1ccc(C2=NN(C(C)=O)C(c3ccc(F)cc3)C2)cc1 (configuration not stated), the GI50 [1] was 20.3 µM, the TGI [1] was 40.2 µM and the GI50 [2] was 14.9 µM. It also gave a TGI [2] of 42.5 µM, a GI50 [3] of 14.2 µM and a TGI [3] of 29.8 µM. For the same compound, the GI50 [4] was 7.97 µM, the TGI [4] was 21.1 µM and the GI50 [5] was 20.4 µM. For the same compound, the TGI [5] was 49.8 µM, the GI50 [6] was 20.5 µM and the TGI [6] was 41.2 µM. It also gave a GI50 [7] of 14.4 µM, a TGI [7] of 28.8 µM and a GI50 [8] of 20 µM. For the same compound, the TGI [8] was 44.1 µM, the GI50 [9] was 19.4 µM and the TGI [9] was 42 µM. It also gave a GI50 [10] of 16.9 µM, a TGI [10] of 35.6 µM and a GI50 [11] of 14.5 µM. The TGI [11] was 36 µM, the GI50 [12] was 21.6 µM and the TGI [12] was 64.7 µM. The GI50 [13] was 12.1 µM, the TGI [13] was 30.9 µM and the GI50 [14] was 8.19 µM. It also gave a TGI [14] of 37 µM, a GI50 [15] of 16.6 µM and a TGI [15] of 31.1 µM. For the same compound, the GI50 [16] was 13.2 µM, the TGI [16] was 31.4 µM and the GI50 [17] was 12.7 µM. The TGI [17] was 42.4 µM, the GI50 [18] was 14.7 µM and the TGI [18] was 34.5 µM. For the same compound, the GI50 [19] was 23 µM, the TGI [19] was 67.7 µM and the GI50 [20] was 16.5 µM. It also gave a TGI [20] of 34.9 µM, a GI50 [21] of 19.8 µM and a TGI [21] of 63.7 µM. For the same compound, the GI50 [22] was 22.4 µM, the TGI [22] was 45 µM and the GI50 [23] was 12.9 µM. The TGI [23] was 26.4 µM, the GI50 [24] was 5.96 µM and the TGI [24] was 21.4 µM. It also gave a GI50 [25] of 18.5 µM, a TGI [25] of 34.6 µM and a GI50 [26] of 10.1 µM. The TGI [26] was 22.1 µM, the GI50 [27] was 11.5 µM and the TGI [27] was 41.4 µM. The GI50 [28] was 15.6 µM, the TGI [28] was 35.7 µM and the GI50 [29] was 10.8 µM.
